Data taken from publication PMC12155096 (International Journal of Molecular Sciences, 2025).
Where a name gives a salt, the structure may show the parent alone. Read-outs that look alike come from different tables or passages of the source.

Experiments:
human CYP1A2 [1] = biological target: T1, human CYP1A2 (Homo sapiens, UniProt P05177); assay: biochemical
T1 sequence (P05177 1-516): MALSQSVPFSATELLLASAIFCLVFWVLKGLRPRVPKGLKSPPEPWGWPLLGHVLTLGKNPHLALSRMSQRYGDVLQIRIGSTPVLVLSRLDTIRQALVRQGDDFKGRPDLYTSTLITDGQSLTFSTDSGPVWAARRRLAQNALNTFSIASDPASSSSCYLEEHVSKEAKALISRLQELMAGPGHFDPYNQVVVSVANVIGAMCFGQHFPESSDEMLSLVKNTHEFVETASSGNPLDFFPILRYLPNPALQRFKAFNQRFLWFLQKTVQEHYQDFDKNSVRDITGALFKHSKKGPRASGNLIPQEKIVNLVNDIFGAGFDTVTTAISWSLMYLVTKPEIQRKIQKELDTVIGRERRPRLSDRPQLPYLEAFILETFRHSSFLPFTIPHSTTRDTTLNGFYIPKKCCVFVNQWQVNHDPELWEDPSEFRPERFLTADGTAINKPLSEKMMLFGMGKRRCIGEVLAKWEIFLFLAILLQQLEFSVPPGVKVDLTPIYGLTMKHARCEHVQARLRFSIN

human CYP2C9 [2] = biological target: T2, human CYP2C9 (Homo sapiens, UniProt P11712); assay: biochemical
T2 sequence (P11712 whole entry): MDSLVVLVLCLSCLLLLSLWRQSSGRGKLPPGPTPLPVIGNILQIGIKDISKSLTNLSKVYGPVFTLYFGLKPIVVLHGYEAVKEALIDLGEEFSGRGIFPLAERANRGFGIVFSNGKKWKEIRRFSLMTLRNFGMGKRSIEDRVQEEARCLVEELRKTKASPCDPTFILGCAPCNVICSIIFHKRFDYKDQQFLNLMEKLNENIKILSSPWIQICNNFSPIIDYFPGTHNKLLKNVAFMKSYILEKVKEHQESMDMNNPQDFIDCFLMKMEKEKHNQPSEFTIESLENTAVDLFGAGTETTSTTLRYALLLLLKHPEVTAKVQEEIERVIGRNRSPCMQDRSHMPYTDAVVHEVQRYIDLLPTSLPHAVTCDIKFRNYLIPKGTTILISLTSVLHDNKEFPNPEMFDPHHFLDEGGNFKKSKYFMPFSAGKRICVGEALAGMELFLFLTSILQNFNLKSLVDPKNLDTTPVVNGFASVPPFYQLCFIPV

human CYP2C19 [3] = biological target: T3, human CYP2C19 (Homo sapiens, UniProt P33261); assay: biochemical
T3 sequence (P33261 whole entry): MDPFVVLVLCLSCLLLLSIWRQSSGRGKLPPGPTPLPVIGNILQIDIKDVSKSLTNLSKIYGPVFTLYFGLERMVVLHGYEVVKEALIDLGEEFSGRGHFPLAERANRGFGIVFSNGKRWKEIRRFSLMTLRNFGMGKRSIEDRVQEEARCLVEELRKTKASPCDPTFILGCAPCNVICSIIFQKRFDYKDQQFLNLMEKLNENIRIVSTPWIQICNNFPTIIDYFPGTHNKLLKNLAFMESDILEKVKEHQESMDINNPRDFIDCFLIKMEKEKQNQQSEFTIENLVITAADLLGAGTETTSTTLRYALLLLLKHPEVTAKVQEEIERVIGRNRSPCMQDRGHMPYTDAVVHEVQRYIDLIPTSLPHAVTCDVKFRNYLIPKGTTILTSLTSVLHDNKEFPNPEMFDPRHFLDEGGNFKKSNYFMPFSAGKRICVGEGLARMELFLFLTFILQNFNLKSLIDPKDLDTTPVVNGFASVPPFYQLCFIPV

human CYP2D6 = human CYP2D6 (Homo sapiens, UniProt P10635); assay: biochemical
Chain of human CYP2D6 (P10635 whole entry): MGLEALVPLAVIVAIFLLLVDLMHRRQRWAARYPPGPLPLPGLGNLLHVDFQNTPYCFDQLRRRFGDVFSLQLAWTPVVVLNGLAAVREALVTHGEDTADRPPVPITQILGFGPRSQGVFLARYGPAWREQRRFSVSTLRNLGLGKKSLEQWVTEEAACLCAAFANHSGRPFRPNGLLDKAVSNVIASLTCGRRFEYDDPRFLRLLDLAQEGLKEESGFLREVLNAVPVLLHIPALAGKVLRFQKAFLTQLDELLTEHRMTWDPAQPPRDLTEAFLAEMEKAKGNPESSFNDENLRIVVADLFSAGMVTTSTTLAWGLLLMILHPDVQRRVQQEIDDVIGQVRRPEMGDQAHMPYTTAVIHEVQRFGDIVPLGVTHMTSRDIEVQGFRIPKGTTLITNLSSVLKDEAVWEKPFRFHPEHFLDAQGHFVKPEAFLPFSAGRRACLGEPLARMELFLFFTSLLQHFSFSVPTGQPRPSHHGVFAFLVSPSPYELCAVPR

CYP3A4 = CYP3A4 (Homo sapiens, UniProt P08684); assay: biochemical
Chain of CYP3A4 (P08684 whole entry): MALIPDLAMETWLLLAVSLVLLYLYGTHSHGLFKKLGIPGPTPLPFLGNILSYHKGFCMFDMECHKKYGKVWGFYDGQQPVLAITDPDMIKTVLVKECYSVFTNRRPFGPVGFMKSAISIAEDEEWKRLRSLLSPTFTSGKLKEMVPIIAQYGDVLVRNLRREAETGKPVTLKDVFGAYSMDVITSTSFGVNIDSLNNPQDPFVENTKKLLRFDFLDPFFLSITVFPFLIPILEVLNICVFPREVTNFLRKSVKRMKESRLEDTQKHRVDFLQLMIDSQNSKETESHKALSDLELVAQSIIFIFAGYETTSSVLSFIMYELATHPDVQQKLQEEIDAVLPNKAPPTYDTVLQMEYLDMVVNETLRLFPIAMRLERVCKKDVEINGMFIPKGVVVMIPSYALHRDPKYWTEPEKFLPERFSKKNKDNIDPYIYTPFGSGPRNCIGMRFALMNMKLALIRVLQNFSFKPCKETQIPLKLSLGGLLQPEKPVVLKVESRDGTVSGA

human CYP2C19 [4] = biological target: T3, human CYP2C19
human CYP1A2 [5] = biological target: T1, human CYP1A2
human CYP2C9 [6] = biological target: T2, human CYP2C9
[7] = CYP1A2 AC50 (half-maximal activity concentration)
[8] = CYP2C9 AC50 (half-maximal activity concentration)
[9] = CYP2C19 AC50 (half-maximal activity concentration)
[10] = CYP2D6 AC50 (half-maximal activity concentration)
[11] = CYP3A4 AC50 (half-maximal activity concentration)

Row | Compound | AC50 (human CYP1A2 [1]; [7]) [µM] | AC50 (human CYP2C9 [2]; [8]) [µM] | AC50 (human CYP2C19 [3]; [9]) [µM] | AC50 (human CYP2D6; [10]) [µM] | AC50 (CYP3A4; [11]) [µM] | further results
1 | O=C(C(=O)c1ccccc1)c1ccccc1 [1,2-Diphenylethanedione] | 12.1 | 1.13 | 14.8 | 29.4 | 35.4 | 
2 | ClC(Cl)(Cl)c1ccc(C(Cl)(Cl)Cl)cc1 [1,4-Bis(trichloromethyl)benzene] | 5.66 | 34.2 |  | 58.6 | 45.9 | CYP2C19 AC50 (half-maximal activity concentration) (human CYP2C19 [4]): Inconclusive inhibitor
3 | Oc1c(Br)cc(Br)cc1Br [2,4,6-Tribromophenol] | 51.7 | 38.5 |  | 68.4 | 72.8 | CYP2C19 AC50 (half-maximal activity concentration) (human CYP2C19 [4]): Inconclusive inhibitor
4 | Oc1c(I)cc(I)cc1I [2,4,6-Triiodophenol] | 37.2 | 41.2 | 61.9 | 80.7 | 63.5 | 
5 | O=C(O)c1cc(Cl)cc(Cl)c1 [3,5-Dichlorobenzoic acid] | 57.8 | 58.9 |  | 27.8 | 55.5 | CYP2C19 AC50 (half-maximal activity concentration) (human CYP2C19 [4]): Inconclusive inhibitor
6 | Cc1ccc(C(=O)c2ccccc2)cc1 [4-Methylbenzophenone] | 34.3 | 34.3 | 13.3 | 46.2 | 16 | 
7 | O=C(c1ccccc1)C(O)c1ccccc1 (centres unmarked) [Benzoin] | 22.6 | 2.27 | 15.8 | 36.7 | 22.8 | 
8 | c1ccc(CSCc2ccccc2)cc1 [Benzyl sulfide] | 27.3 | 29.8 | 5.94 | 61.9 | 7.5 | 
9 | COC(=O)c1cc(Oc2ccc(Cl)cc2Cl)ccc1[N+](=O)[O-] [Bifenox] | 20.4 | 7.1 | 2.45 | 25.3 | 5.23 | 
10 | CCCCC(CC)COP(=O)(O)OCC(CC)CCCC (centres unmarked) [Bis(2-ethylhexyl) phosphate] | 82.9 | 16.5 | 40.6 | 56.6 | 37.6 | 
11 | O=C1C=CC(=O)N1c1ccc(Cc2ccc(N3C(=O)C=CC3=O)cc2)cc1 [Bismaleimide] | 23.9 | 4.93 | 8.29 | 43.6 | 56.6 | 
12 | CCCCCCCC(=O)Oc1c(Br)cc(C#N)cc1Br [Bromoxynil octanoate] | 15 | 34.5 | 32.5 | 85.8 | 15.4 | 
13 | C#CC(C)N(C)C(=O)Nc1ccc(Cl)cc1 (centres unmarked) [Buturon] | 5.47 | 22.8 | 8.68 | 55.3 | 9.33 | 
14 | CCOP(=O)(Sc1ccccc1)Sc1ccccc1 [Edifenphos] | 13 | 29.7 | 8.61 | 42.7 | 8.65 | 
15 | CCOc1ccc(C(C)(C)COCc2cccc(Oc3ccccc3)c2)cc1 [Etofenprox] |  | 7.13 | 16.4 | 34.3 | 35.7 | CYP1A2 AC50 (half-maximal activity concentration) (human CYP1A2 [5]): Inconclusive inhibitor
16 | CCOC(=O)c1nc(C(Cl)(Cl)Cl)n(-c2ccc(Cl)cc2Cl)n1 [Fenchlorazole-ethyl] |  | 3.92 | 7.02 | 13.1 | 3.26 | CYP1A2 AC50 (half-maximal activity concentration) (human CYP1A2 [5]): Inactive
17 | CCOC(=O)[C@@H](C)Oc1ccc(Oc2nc3ccc(Cl)cc3o2)cc1 [Fenoxaprop-P-ethyl] | 23.8 | 55 | 62.1 | 47.5 | 47.6 | 
18 | CC(C)C(O)(c1ccc(OC(F)(F)F)cc1)c1cncnc1 (centres unmarked) [Flurprimidol] |  |  |  |  |  | IC50 (human CYP1A2 [1]; CYP1A2 IC50 (half-maximal inhibitory concentration)): 63.3 µM; IC50 (human CYP2C19 [3]; CYP2C19 IC50 (half-maximal inhibitory concentration)): 2.67 µM; IC50 (human CYP2D6; CYP2D6 IC50 (half-maximal inhibitory concentration)): 10.3 µM; IC50 (CYP3A4; CYP3A4 IC50 (half-maximal inhibitory concentration)): 0.54 µM
19 | COC(=O)C(C)Oc1ccc(Oc2ncc(C(F)(F)F)cc2Cl)cc1 (centres unmarked) [Haloxyfop-methyl] |  |  |  |  |  | AC50 (human CYP1A2 [1]): 46.8 µM; AC50 (human CYP2C9 [2]): 5.74 µM; AC50 (human CYP2C19 [3]): 50.9 µM; AC50 (human CYP2D6): 46.8 µM; AC50 (CYP3A4): 27.8 µM
20 | O=C(NC1CCN(CCc2c[nH]c3ccccc23)CC1)c1ccccc1 [Indoramin hydrochloride] |  |  |  | 4.31 | 15.6 | CYP1A2 AC50 (half-maximal activity concentration) (human CYP1A2 [5]): Inactive; CYP2C9 AC50 (half-maximal activity concentration) (human CYP2C9 [6]): Inactive; CYP2C19 AC50 (half-maximal activity concentration) (human CYP2C19 [4]): Inactive
21 | Cc1cccc(C)c1NC(=O)CN1CCN(CCCC(c2ccc(F)cc2)c2ccc(F)cc2)CC1 [Lidoflazine] |  | 21.3 | 36.7 | 5.18 | 2.26 | CYP1A2 AC50 (half-maximal activity concentration) (human CYP1A2 [5]): Inactive
22 | CC[N+](C)(CC)CCOC(=O)C1c2ccccc2Oc2ccccc21 [Methantheline bromide] |  |  |  | 3.29 | 15.6 | CYP1A2 AC50 (half-maximal activity concentration) (human CYP1A2 [5]): Inconclusive inhibitor; CYP2C9 AC50 (half-maximal activity concentration) (human CYP2C9 [6]): Inactive; CYP2C19 AC50 (half-maximal activity concentration) (human CYP2C19 [4]): Inactive
23 | COc1ccc(C(=O)c2ccc(C)cc2)c(O)c1 [Mexenone] | 16.1 | 14.7 | 5.89 | 56.1 | 6.22 | 
24 | O=C1NC2CCCCN2C12CCN(CCCN1c3ccccc3CCc3ccc(Cl)cc31)CC2 (centres unmarked) [Mosapramine] |  |  |  | 6.53 | 6.79 | CYP1A2 AC50 (half-maximal activity concentration) (human CYP1A2 [5]): Inactive; CYP2C9 AC50 (half-maximal activity concentration) (human CYP2C9 [6]): Inconclusive inhibitor; CYP2C19 AC50 (half-maximal activity concentration) (human CYP2C19 [4]): Inconclusive inhibitor
25 | CN(C/C=C/c1ccccc1)Cc1cccc2ccccc12 [Naftifine hydrochloride] | 12.5 | 12.5 | 5.52 | 1.06 | 12.4 | 
26 | OC1(c2ccc(Cl)c(C(F)(F)F)c2)CCN(CCCC(c2ccc(F)cc2)c2ccc(F)cc2)CC1 [Penfluridol] |  |  |  |  |  | AC50 (human CYP1A2 [1]): 29.9 ± 4.12 µM; AC50 (human CYP2C9 [2]): 10.3 ± 1.85 µM; AC50 (human CYP2C19 [3]): 16.6 ± 4.88 µM; AC50 (human CYP2D6): 5.85 ± 1.65 µM; AC50 (CYP3A4): 2.39 ± 0.41 µM
27 | CN1CCC(=C2c3ccccc3Sc3ccccc32)CC1 [Pimethixene maleate] |  |  | 21.7 | 3.22 | 16.1 | CYP1A2 AC50 (half-maximal activity concentration) (human CYP1A2 [5]): Inactive; CYP2C9 AC50 (half-maximal activity concentration) (human CYP2C9 [6]): Inactive
28 | Oc1c(Cl)c(Cl)c(Cl)c(Cl)c1Cl [Sodium pentachlorophenate] | 73.9 |  |  | 2.15 | 71 | CYP2C19 AC50 (half-maximal activity concentration) (human CYP2C19 [4]): Inactive
29 | c1ccc(P(c2ccccc2)c2ccccc2)cc1 [Triphenylphosphine] |  | 7.13 | 8.69 | 35.7 | 36.2 | CYP1A2 AC50 (half-maximal activity concentration) (human CYP1A2 [5]): Inactive
